Data taken from ChEMBL document CHEMBL6120978, “Anticancer activity of salinomycin quaternary phosphonium salts” (Eur J Med Chem, 2025).
≈ marks a conversion by molar mass, not a printed value.

How the values were obtained:
SW480 = assay: Cytotoxicity against human SW480 cells incubated for 72 hrs by MTT assay; assay type: functional, cell-based; settings: SW480, 72 h
SW-620 = assay: Cytotoxicity against human SW620 cells incubated for 72 hrs by MTT assay; assay type: functional, cell-based; settings: SW-620, 72 h
PC-3 = assay: Cytotoxicity against human PC-3 cells incubated for 72 hrs by MTT assay; assay type: functional, cell-based; settings: PC-3, 72 h
MDA-MB-231 = assay: Cytotoxicity against human MDA-MB-231 cells incubated for 72 hrs by MTT assay; assay type: functional, cell-based; settings: MDA-MB-231, 72 h
A549 = assay: Cytotoxicity against human A549 cells incubated for 72 hrs by MTT assay; assay type: functional, cell-based; settings: A549, 72 h
[1] = Cytotoxicity against human HaCaT cells incubated for 72 hrs by MTT assay; assay type: toxicity, cell-based
[2] = Cytotoxicity against chinese hamster V79 cells incubated for 72 hrs by MTT assay; assay type: toxicity, cell-based, Cricetulus griseus
[3] = Selectivity index, ratio of IC50 for cytotoxicity against human HaCaT cells to IC50 for cytotoxicity against human SW480 cells; assay type: toxicity, cell-based; settings: HaCaT cells versus SW480 cells, read-out: Ratio IC50
[4] = Selectivity index, ratio of IC50 for cytotoxicity against human HaCaT cells to IC50 for cytotoxicity against human SW620 cells; assay type: toxicity, cell-based; settings: HaCaT cells versus SW620 cells, read-out: Ratio IC50
[5] = Selectivity index, ratio of IC50 for cytotoxicity against human HaCaT cells to IC50 for cytotoxicity against human PC-3 cells; assay type: toxicity, cell-based; settings: HaCaT cells versus PC-3 cells, read-out: Ratio IC50
[6] = Selectivity index, ratio of IC50 for cytotoxicity against human HaCaT cells to IC50 for cytotoxicity against human MDA-MB-231 cells; assay type: toxicity, cell-based; settings: HaCaT cells versus MDA-MB-231 cells, read-out: Ratio IC50
[7] = Selectivity index, ratio of IC50 for cytotoxicity against human HaCaT cells to IC50 for cytotoxicity against human A549 cells; assay type: toxicity, cell-based; settings: HaCaT cells versus A549 cells, read-out: Ratio IC50
[8] = Selectivity index, ratio of IC50 for cytotoxicity against chinese hamster V79 cells to IC50 for cytotoxicity against human SW480 cells; assay type: toxicity, cell-based; settings: V79 cells versus SW480 cells, read-out: Ratio IC50
[9] = Selectivity index, ratio of IC50 for cytotoxicity against chinese hamster V79 cells to IC50 for cytotoxicity against human SW620 cells; assay type: toxicity, cell-based; settings: V79 cells versus SW620 cells, read-out: Ratio IC50
[10] = Selectivity index, ratio of IC50 for cytotoxicity against chinese hamster V79 cells to IC50 for cytotoxicity against human PC-3 cells; assay type: toxicity, cell-based; settings: V79 cells versus PC-3 cells, read-out: Ratio IC50
[11] = Selectivity index, ratio of IC50 for cytotoxicity against chinese hamster V79 cells to IC50 for cytotoxicity against human MDA-MB-231 cells; assay type: toxicity, cell-based; settings: V79 cells versus MDA-MB-231 cells, read-out: Ratio IC50
[12] = Selectivity index, ratio of IC50 for cytotoxicity against chinese hamster V79 cells to IC50 for cytotoxicity against human A549 cells; assay type: toxicity, cell-based; settings: V79 cells versus A549 cells, read-out: Ratio IC50
Staphylococcus aureus [13] = assay: Antimicrobial activity against Staphylococcus aureus NCTC 4163 incubated for 18 hrs by twofold microdilution method; assay type: functional
Staphylococcus aureus [14] = assay: Antimicrobial activity against Staphylococcus aureus ATCC 25923 incubated for 18 hrs by twofold microdilution method; assay type: functional
Staphylococcus aureus [15] = assay: Antimicrobial activity against Staphylococcus aureus ATCC 6538 incubated for 18 hrs by twofold microdilution method; assay type: functional
Staphylococcus aureus [16] = assay: Antimicrobial activity against Staphylococcus aureus ATCC 29213 incubated for 18 hrs by twofold microdilution method; assay type: functional
[17] = system: Staphylococcus epidermidis; assay: Antimicrobial activity against Staphylococcus epidermidis ATCC 12228 incubated for 18 hrs by twofold microdilution method; assay type: functional
[18] = system: Staphylococcus epidermidis; assay: Antimicrobial activity against Staphylococcus epidermidis ATCC 35984 incubated for 18 hrs by twofold microdilution method; assay type: functional
Escherichia coli = assay: Antimicrobial activity against Escherichia coli ATCC 25922 incubated for 18 hrs by twofold microdilution method; assay type: functional
Pseudomonas aeruginosa = assay: Antimicrobial activity against Pseudomonas aeruginosa ATCC 15442 incubated for 18 hrs by twofold microdilution method; assay type: functional

Row | SMILES | MIC (Staphylococcus aureus [14]) [µg/mL] | MIC (Staphylococcus aureus [16]) [µg/mL] | MIC [17] [µg/mL] | MIC [18] [µg/mL] | MIC (Escherichia coli) [µg/mL] | IC50 (SW480) [nM] | IC50 (SW-620) [nM] | IC50 (PC-3) [nM] | IC50 (MDA-MB-231) [nM] | IC50 (A549) [nM] | IC50 at 72 h [1] [nM] | IC50 at 72 h [2] [nM] | selectivity ratio [3] | selectivity ratio [4] | selectivity ratio [5] | selectivity ratio [6] | selectivity ratio [7] | selectivity ratio [8] | selectivity ratio [9] | selectivity ratio [10] | also measured
1 | CCCC[P+](CCCC)(CCCC)CCCCCCOC(=O)[C@H](CC)[C@H]1CC[C@H](C)[C@H]([C@@H](C)[C@H](O)[C@H](C)C(=O)[C@H](CC)[C@H]2O[C@]3(C=C[C@@H](O)[C@]4(CC[C@@](C)([C@H]5CC[C@](O)(CC)[C@H](C)O5)O4)O3)[C@H](C)C[C@@H]2C)O1.[Br-] | 2 | 2 | 2 | 2 | > 256 | 500 | 670 | 2890 | 1020 | 1050 | 620 | 650 | 1.2 | 0.9 | 0.2 | 0.6 | 0.6 | 1.3 | 1 | 0.2 | selectivity ratio [11]: 0.6; selectivity ratio [12]: 0.6; MIC (Staphylococcus aureus [13]): 2 µg/mL; MIC (Staphylococcus aureus [15]): 2 µg/mL; MIC (Pseudomonas aeruginosa): > 256 µg/mL
2 | O=C(O)c1cn(C2CC2)c2cc(N3CCNCC3)c(F)cc2c1=O [CIPROFLOXACIN] | 0.25 (≈ 0.754 µM) | 0.25 (≈ 0.754 µM) | 0.125 (≈ 0.377 µM) | 0.125 (≈ 0.377 µM) | 0.007 (≈ 0.0211 µM) |  |  |  |  |  |  |  |  |  |  |  |  |  |  |  | 
3 | COc1cccc2c1C(=O)c1c(O)c3c(c(O)c1C2=O)C[C@@](O)(C(=O)CO)C[C@@H]3O[C@H]1C[C@H](N)[C@H](O)[C@H](C)O1 [DOXORUBICIN] |  |  |  |  |  |  |  |  | 830 | 630 |  | 2010 |  |  |  |  |  |  |  |  | 

Further lines, with some results ahead:

Row | MIC (Staphylococcus aureus [14]) [µg/mL] | MIC (Staphylococcus aureus [16]) [µg/mL] | MIC [17] [µg/mL] | MIC [18] [µg/mL] | MIC (Escherichia coli) [µg/mL] | SMILES | IC50 (SW480) [nM] | IC50 (SW-620) [nM] | IC50 (PC-3) [nM] | IC50 (MDA-MB-231) [nM] | IC50 (A549) [nM] | IC50 at 72 h [1] [nM] | IC50 at 72 h [2] [nM] | selectivity ratio [3] | selectivity ratio [4] | selectivity ratio [5] | selectivity ratio [6] | selectivity ratio [7] | selectivity ratio [8] | selectivity ratio [9] | selectivity ratio [10] | also measured
4 | 4 | 64 | 16 | 8 | > 256 | CC[C@@H](C(=O)[C@@H](C)[C@@H](O)[C@H](C)[C@@H]1O[C@@H]([C@@H](CC)C(=O)OCCCC[P+](c2ccc(OC)cc2)(c2ccc(OC)cc2)c2ccc(OC)cc2)CC[C@@H]1C)[C@H]1O[C@]2(C=C[C@@H](O)[C@]3(CC[C@@](C)([C@H]4CC[C@](O)(CC)[C@H](C)O4)O3)O2)[C@H](C)C[C@@H]1C.[Br-] | 730 | 1280 | 2240 | 1420 | 660 | 1120 | 670 | 1.5 | 0.9 | 0.5 | 0.8 | 1.7 | 0.9 | 0.5 | 0.3 | selectivity ratio [11]: 0.5; selectivity ratio [12]: 1; MIC (Staphylococcus aureus [13]): 4 µg/mL; MIC (Staphylococcus aureus [15]): 4 µg/mL; MIC (Pseudomonas aeruginosa): > 256 µg/mL
5 | 16 | 8 | 16 | 16 | > 256 | CC[C@@H](C(=O)[C@@H](C)[C@@H](O)[C@H](C)[C@@H]1O[C@@H]([C@@H](CC)C(=O)OCCCCCC[P+](c2ccc(C)cc2)(c2ccc(C)cc2)c2ccc(C)cc2)CC[C@@H]1C)[C@H]1O[C@]2(C=C[C@@H](O)[C@]3(CC[C@@](C)([C@H]4CC[C@](O)(CC)[C@H](C)O4)O3)O2)[C@H](C)C[C@@H]1C.[Br-] | 610 | 720 | 1580 | 830 | 980 | 1050 | 670 | 1.7 | 1.5 | 0.7 | 1.3 | 1.1 | 1.1 | 0.9 | 0.4 | selectivity ratio [11]: 0.8; selectivity ratio [12]: 0.7; MIC (Staphylococcus aureus [13]): 8 µg/mL; MIC (Staphylococcus aureus [15]): 8 µg/mL; MIC (Pseudomonas aeruginosa): > 256 µg/mL
